Experimental data taken from publication PMC3359160, “Dipeptidyl peptidase IV, aminopeptidase N and DPIV/APN-like proteases in cerebral ischemia” (Journal of Neuroinflammation, 2012).

What was measured:
mononuclear cells = system: mononuclear cells; design: method as in Patent EP09169269; details: ref Patent EP09169269; read-out: IC50, proliferation of mononuclear cells; cited from earlier work
DP8/9 = system: DP8/9; design: method as in Patent EP09169269; details: ref Patent EP09169269; cited from earlier work
cAAP = system: cAAP; design: method as in Patent EP09169269; details: ref Patent EP09169269; cited from earlier work
APN = system: APN; design: method as in Patent EP09169269; details: ref Patent EP09169269; cited from earlier work
DPII = system: DPII; design: method as in Patent EP09169269; details: ref Patent EP09169269; cited from earlier work
DPIV = system: DPIV; design: method as in Patent EP09169269; details: ref Patent EP09169269; cited from earlier work
[1] = system: eMCAO-induced infarct volume; experiment: Effect of protease inhibitors on infarct volumes after eMCAO (transient focal cerebral ischemia); assay type: in vivo, male Sprague-Dawley rats; details: rat, icv f.c. 10 μM; for effect on striatal lesion sizes / effect on eMCAO-induced infarct volumes in ipsilateral cortices: 7 days post eMCAO; for reduction of eMCAO-induced infarct volume in ipsilateral cortex compared to vehicle: mean ± S.E.M.
Method: Studies were performed on male Sprague-Dawley rats (250-280 g) obtained from Harlan Winkelmann (Borchen, Germany). Animals were maintained under constant environmental conditions with an ambient temperature of 21 ± 2°C and relative humidity of 40%. They were housed with a 12-h light-dark cycle, food and water were given ad libitum. […] Animals were anesthetized with halothane in a mixture of nitrous oxide/oxygen (70:30) and maintained with 2-3% halothane during the following procedures: rats were placed in a Kopf stereotaxic frame and further anesthetized via a nose cone. For the induction of eMCAO, a burr hole (1 mm diameter) was drilled into the skull (coordinates: anterior 0.50 mm from bregma, lateral 5.2 mm to […]). After careful opening of the dura, a 29-gauge cannula was lowered 7.5 mm below the dura according to the rat brain atlas of Paxinos and Watson. […] After further 5 min, the cannula was slowly withdrawn. Throughout the operation procedure, rats were kept at 37 ± 0.5°C using a thermostatically controlled heating blanket attached to a rectal thermometer. The animals were then placed under a heating lamp to maintain normothermia until recovery. In order to perform the icv application of different protease inhibitors under halothane anesthesia, a second burr hole was drilled into the skull (coordinates: posterior 0.80 mm from bregma, lateral 1.5 mm to […]). Then, a 29-gauge cannula was lowered 4.5 mm below the dura. The icv injection of IPC1755 (2 μl of a 10 mmol/l PBS/DMSO solution, pH 7.4, f.c. 10 μM) was performed according to one of the following time schedules; […] According to legal requirements of the German animal law, animals were kept under anesthesia during each drug injection. Control rats were treated in the same way, except that the corresponding vehicle solution instead of the drug was injected. Thus, potential protective effects of halothane can be excluded. Rats were maintained at 37 ± 0.5°C throughout the operation procedures. In parallel, the body temperature was monitored using a rectal temperature sensor. Subsequently, the animals were placed into an incubator to maintain normothermia until recovery from anesthesia and then returned into their home cage. After a survival time of 7 days after eMCAO, animals were anesthetized by intraperitonial injection of pentobarbital and transcardially perfusion-fixed with saline followed by 4% paraformaldehyde in 0.1 M PBS (pH 7.4). Brains were then removed carefully, post-fixed in the same fixative for 2 h, and placed in a rodent brain matrix (rat, ASI Instruments, Warren, MI, USA). 1-mm coronal brain slices were cut with a razor blade at 14 predetermined anterior-posterior levels. After cryoprotection in 30% sucrose, slices were rapidly frozen in isopentane and stored at -80°C. Four to five cryostat sections (30 μm) from each brain slice were cut in a cryo microtome and stained with toluidine blue. The extent of cortical and striatal damage following ischemic injury was documented with microphotographic images from Nissl-stained slices showing the anterior-posterior level according to the brain atlas of Paxinos and Watson. The volumes of cortical and striatal infarct lesions were measured at eight predetermined anterior-posterior levels by an operator blinded to the group composition. Three-dimensional lesion sizes were calculated by integration of two-dimensional lesion sizes at each stereotactic level and the distances between the various levels. Image analysis was performed with an Eclipse TE 3000 microscope (Nikon, Düsseldorf, Germany), equipped with a 4x objective, and the Lucia software package (Version 4.2.1., Nikon). Data were statistically analyzed by non-paired Student's t-test and given as mean ± S.E.M.

T cells = system: T cells; design: method as in Patent EP09169269; details: ref Patent EP09169269; read-out: IC50, proliferation of T cells; cited from earlier work
[2] = in parallel to eMCAO and 6 h and 24 h post insult, analyzed 7 days post eMCAO
[3] = in parallel to eMCAO and 6 h and 24 h post insult

Question: Which results are given for `CCCCCCCCCCCCCCCC(=O)OC(C(=O)NCC(C)(C)CNC(=O)CC(N)Cc1cc(F)ccc1F)C(N)Cc1ccccc1` (stereo not shown) [IPC1755]?
Answer: IC50 (mononuclear cells): 36 µM; IC50 (DP8/9): 85 µM; IC50 (cAAP): 0.02 µM; IC50 (APN): 0.03 µM; IC50 (DPII): 166 µM; IC50 (DPIV): 0.06 µM; effect on striatal lesion sizes ([1]; all three time schedules (Figure 7C columns b-d)): did not affect striatal lesion sizes; cortical lesion size, % of control damage of vehicle-treated animals ([1]; exclusively 6 and 24 h post eMCAO, analyzed 7 days post eMCAO): 107.5 ± 12.8%; reduction of eMCAO-induced infarct volume in ipsilateral cortex compared to vehicle [1, 2]: 48.8 ± 7.9%; IC50 (T cells): 34 µM

Question: With `NCC[C@H](N)C(=O)N1CCCCC1` [selective DPII inhibitor, L-2,4-Diaminobutyrylpiperidinamide] as the compound, how does the “effect on eMCAO-induced infarct volumes in ipsilateral cortices” value [1, 3] read?
Answer: The value was “did not decrease”.

Question: And the “effect on striatal lesion sizes” value [1, 3]?
Answer: The value was “neither sitagliptin nor selective DPII or DP8/9 inhibition affected”.

Question: With `N[C@@H](CC(=O)N1CCn2c(nnc2C(F)(F)F)C1)Cc1cc(F)c(F)cc1F` [sitagliptin, (R)-3-Amino-1-[3-(trifluormethyl)-5,6,7,8-tetrahydro[1,2, 4]triazol[4,3-a]pyrazin-7-yl]-4-(2,4,5-trifluorphenyl)butan-1-on] as the compound, how does the “effect on striatal lesion sizes” value [1, 3] read?
Answer: The value was “neither sitagliptin nor selective DPII or DP8/9 inhibition affected”.

Question: And the “reduction of eMCAO-induced infarct volume in ipsilateral cortex compared to vehicle” value [1, 2]?
Answer: The value was 21.1 ± 5.8%.

Question: Which “effect on eMCAO-induced infarct volumes in ipsilateral cortices” value [1, 3] does the source give for `CC[C@@H](C)[C@H](N)C(=O)N1Cc2ccccc2C1.Cl` [selective DP8/9 inhibitor, (2S,3R)-2-(2-amino-3-methyl-1-oxopentan-1-yl)-1,3-dihydro-2H-isoindole hydrochloride] here?
Answer: The value was “did not decrease”.

Question: What about the “effect on striatal lesion sizes” value [1, 3] of the same compound?
Answer: The value was “neither sitagliptin nor selective DPII or DP8/9 inhibition affected”.
